From the supplement of paper PMC8612539
Converted amounts (≈) assume the structure as drawn.

Tested on: Escherichia coli
Assay: minimum inhibitory concentration (MIC)
Description: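 Broth microdilution MIC (Sensititre BOPO7F bovine plate, CLSI methods) of 19 antimicrobials against field isolates of P. multocida, M. haemolytica, H. somni (deep nasopharyngeal swabs) and E. coli, Enterococcus spp. (rectal swabs) from weaned dairy heifers. Incubation 16-24 h at 35 C. MIC is the lowest concentration preventing visible growth. Values with <= or > lie at the tested range limits. Trimethoprim-sulfamethoxazole is given as the trimethoprim component of a 1:19 mixture.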

CC[C@H]1OC(=O)C[C@@H](O)[C@H](C)[C@@H](O[C@@H]2O[C@H](C)[C@@H](O)[C@H](N(C)C)[C@H]2O)[C@@H](CCN2C[C@H](C)C[C@H](C)C2)C[C@@H](C)C(=O)/C=C/C(C)=C/[C@@H]1CO[C@@H]1O[C@H](C)[C@@H](O)[C@@H](OC)[C@H]1OC [Tilmicosin]
Conditions | minimum inhibitory concentration [µg/mL]
isolate (source animal id): 8 | > 16
isolate (source animal id): 9 | > 16
isolate (source animal id): 10 | > 16
isolate (source animal id): 11 | > 16
isolate (source animal id): 12 | > 16
isolate (source animal id): 13 | > 16
isolate (source animal id): 14 | > 16
isolate (source animal id): 15 | > 16
isolate (source animal id): 16 | > 16
isolate (source animal id): 98 | > 16
isolate (source animal id): 99 | > 16
isolate (source animal id): 100 | > 16
isolate (source animal id): 101 | > 16
isolate (source animal id): 102 | > 16
isolate (source animal id): 103 | > 16
isolate (source animal id): 104 | > 16
isolate (source animal id): 105 | > 16
isolate (source animal id): 106 | > 16
isolate (source animal id): 107 | > 16
isolate (source animal id): 108 | > 16
isolate (source animal id): 109 | > 16
isolate (source animal id): 110 | > 16
isolate (source animal id): 111 | > 16
isolate (source animal id): 112 | > 16
isolate (source animal id): 113 | > 16
isolate (source animal id): 114 | > 16
isolate (source animal id): 115 | > 16
isolate (source animal id): 116 | > 16
isolate (source animal id): 117 | > 16
isolate (source animal id): 118 | > 16
isolate (source animal id): 119 | > 16
isolate (source animal id): 120 | > 16
isolate (source animal id): 121 | > 16
isolate (source animal id): 122 | > 16
isolate (source animal id): 123 | > 16
isolate (source animal id): 124 | > 16
isolate (source animal id): 125 | 16 (≈ 18.4 µM)
isolate (source animal id): 126 | > 16
isolate (source animal id): 127 | > 16
isolate (source animal id): 128 | > 16
isolate (source animal id): 129 | > 16
isolate (source animal id): 130 | > 16
isolate (source animal id): 131 | > 16
isolate (source animal id): 132 | > 16
isolate (source animal id): 133 | > 16
isolate (source animal id): 134 | > 16
isolate (source animal id): 135 | > 16
isolate (source animal id): 136 | > 16
isolate (source animal id): 137 | > 16
isolate (source animal id): 138 | > 16
isolate (source animal id): 139 | > 16
isolate (source animal id): 140 | > 16
isolate (source animal id): 141 | > 16
isolate (source animal id): 142 | > 16
isolate (source animal id): 143 | > 16
isolate (source animal id): 144 | > 16
isolate (source animal id): 145 | > 16
isolate (source animal id): 146 | > 16
isolate (source animal id): 147 | > 16
isolate (source animal id): 148 | > 16
isolate (source animal id): 149 | > 16
isolate (source animal id): 150 | > 16
isolate (source animal id): 151 | > 16
isolate (source animal id): 152 | > 16
isolate (source animal id): 153 | > 16
isolate (source animal id): 154 | > 16
isolate (source animal id): 155 | > 16
isolate (source animal id): 156 | > 16
isolate (source animal id): 157 | > 16
isolate (source animal id): 158 | > 16
isolate (source animal id): 159 | > 16
isolate (source animal id): 160 | > 16
isolate (source animal id): 161 | > 16
isolate (source animal id): 162 | > 16
isolate (source animal id): 163 | > 16
isolate (source animal id): 164 | > 16
isolate (source animal id): 165 | > 16
isolate (source animal id): 166 | > 16
isolate (source animal id): 167 | > 16
isolate (source animal id): 168 | > 16
isolate (source animal id): 169 | > 16
isolate (source animal id): 170 | > 16
isolate (source animal id): 171 | > 16
isolate (source animal id): 172 | > 16
isolate (source animal id): 173 | > 16
isolate (source animal id): 174 | > 16
isolate (source animal id): 175 | > 16
isolate (source animal id): 176 | > 16
isolate (source animal id): 177 | > 16
isolate (source animal id): 178 | > 16
isolate (source animal id): 179 | > 16
isolate (source animal id): 180 | > 16
isolate (source animal id): 181 | > 16
isolate (source animal id): 182 | > 16
isolate (source animal id): 183 | > 16
isolate (source animal id): 184 | > 16
isolate (source animal id): 185 | > 16
isolate (source animal id): 186 | > 16
isolate (source animal id): 187 | > 16
isolate (source animal id): 188 | > 16

CN1C[C@@H]2C[C@H]1CN2c1cc2c(cc1F)c(=O)c(C(=O)O)cn2C1CC1 [Danofloxacin]
Conditions | minimum inhibitory concentration [µg/mL]
isolate (source animal id): 8 | ≤ 0.12
isolate (source animal id): 9 | > 1
isolate (source animal id): 10 | ≤ 0.12
isolate (source animal id): 11 | ≤ 0.12
isolate (source animal id): 12 | > 1
isolate (source animal id): 13 | ≤ 0.12
isolate (source animal id): 14 | 0.5 (≈ 1.4 µM)
isolate (source animal id): 15 | ≤ 0.12
isolate (source animal id): 16 | ≤ 0.12
isolate (source animal id): 98 | ≤ 0.12
isolate (source animal id): 99 | ≤ 0.12
isolate (source animal id): 100 | ≤ 0.12
isolate (source animal id): 101 | ≤ 0.12
isolate (source animal id): 102 | ≤ 0.12
isolate (source animal id): 103 | ≤ 0.12
isolate (source animal id): 104 | ≤ 0.12
isolate (source animal id): 105 | ≤ 0.12
isolate (source animal id): 106 | > 1
isolate (source animal id): 107 | ≤ 0.12
isolate (source animal id): 108 | ≤ 0.12
isolate (source animal id): 109 | ≤ 0.12
isolate (source animal id): 110 | ≤ 0.12
isolate (source animal id): 111 | > 1
isolate (source animal id): 112 | ≤ 0.12
isolate (source animal id): 113 | > 1
isolate (source animal id): 114 | ≤ 0.12
isolate (source animal id): 115 | 1 (≈ 2.8 µM)
isolate (source animal id): 116 | > 1
isolate (source animal id): 117 | ≤ 0.12
isolate (source animal id): 118 | 0.5 (≈ 1.4 µM)
isolate (source animal id): 119 | > 1
isolate (source animal id): 120 | 1 (≈ 2.8 µM)
isolate (source animal id): 121 | ≤ 0.12
isolate (source animal id): 122 | ≤ 0.12
isolate (source animal id): 123 | ≤ 0.12
isolate (source animal id): 124 | > 1
isolate (source animal id): 125 | ≤ 0.12
isolate (source animal id): 126 | > 1
isolate (source animal id): 127 | ≤ 0.12
isolate (source animal id): 128 | ≤ 0.12
isolate (source animal id): 129 | 1 (≈ 2.8 µM)
isolate (source animal id): 130 | ≤ 0.12
isolate (source animal id): 131 | > 1
isolate (source animal id): 132 | 0.5 (≈ 1.4 µM)
isolate (source animal id): 133 | ≤ 0.12
isolate (source animal id): 134 | ≤ 0.12
isolate (source animal id): 135 | ≤ 0.12
isolate (source animal id): 136 | ≤ 0.12
isolate (source animal id): 137 | 1 (≈ 2.8 µM)
isolate (source animal id): 138 | > 1
isolate (source animal id): 139 | 0.25 (≈ 0.7 µM)
isolate (source animal id): 140 | ≤ 0.12
isolate (source animal id): 141 | ≤ 0.12
isolate (source animal id): 142 | ≤ 0.12
isolate (source animal id): 143 | 1 (≈ 2.8 µM)
isolate (source animal id): 144 | > 1
isolate (source animal id): 145 | ≤ 0.12
isolate (source animal id): 146 | 0.5 (≈ 1.4 µM)
isolate (source animal id): 147 | > 1
isolate (source animal id): 148 | 0.25 (≈ 0.7 µM)
isolate (source animal id): 149 | ≤ 0.12
isolate (source animal id): 150 | ≤ 0.12
isolate (source animal id): 151 | ≤ 0.12
isolate (source animal id): 152 | ≤ 0.12
isolate (source animal id): 153 | ≤ 0.12
isolate (source animal id): 154 | 0.5 (≈ 1.4 µM)
isolate (source animal id): 155 | ≤ 0.12
isolate (source animal id): 156 | 0.5 (≈ 1.4 µM)
isolate (source animal id): 157 | ≤ 0.12
isolate (source animal id): 158 | ≤ 0.12
isolate (source animal id): 159 | ≤ 0.12
isolate (source animal id): 160 | ≤ 0.12
isolate (source animal id): 161 | ≤ 0.12
isolate (source animal id): 162 | > 1
isolate (source animal id): 163 | ≤ 0.12
isolate (source animal id): 164 | ≤ 0.12
isolate (source animal id): 165 | ≤ 0.12
isolate (source animal id): 166 | ≤ 0.12
isolate (source animal id): 167 | ≤ 0.12
isolate (source animal id): 168 | ≤ 0.12
isolate (source animal id): 169 | ≤ 0.12
isolate (source animal id): 170 | ≤ 0.12
isolate (source animal id): 171 | ≤ 0.12
isolate (source animal id): 172 | ≤ 0.12
isolate (source animal id): 173 | ≤ 0.12
isolate (source animal id): 174 | ≤ 0.12
isolate (source animal id): 175 | ≤ 0.12
isolate (source animal id): 176 | ≤ 0.12
isolate (source animal id): 177 | ≤ 0.12
isolate (source animal id): 178 | ≤ 0.12
isolate (source animal id): 179 | ≤ 0.12
isolate (source animal id): 180 | ≤ 0.12
isolate (source animal id): 181 | ≤ 0.12
isolate (source animal id): 182 | ≤ 0.12
isolate (source animal id): 183 | ≤ 0.12
isolate (source animal id): 184 | ≤ 0.12
isolate (source animal id): 185 | ≤ 0.12
isolate (source animal id): 186 | ≤ 0.12
isolate (source animal id): 187 | ≤ 0.12
isolate (source animal id): 188 | > 1
